Values after ≈ are worked out from the molar mass of the structure shown. Like-named read-outs stand apart in the source and are kept apart here.
What was measured:
Type in all cases: cell-based
U2OS cells [1] = assay: Zinc imaging assay (DA-ZP1 fluorescence) of ionophore activity in U2OS cells; conditions: for ionophore activity (DA-ZP1 fluorescence): U2OS cells, 10 μM Zn(II) and 5 μM compound
Excerpt: A number of bispicolyl-based Zn^II-chelators were synthesized with increasing size at the ortho-position of phenolic OH by a one-step reductive amination between bispicolyl-amine and commercially available 3-substituted salicylaldehydes. Applicants examined the ionophore activity of bispicolyl analogs with methyl (Me, 2), isopropyl (iPr, 3), and tert-butyl (tBu, 4) substitutions (FIG. 1A). […] [13] The cells were first treated with ZnCl2 and ionophore candidates followed by DA-ZP1 treatment and fluorescence measurement.
Applicants experimentally determined the ionophore activity of these silyl-based compounds using the aforementioned DAZ-P1 assay in U2OS cells.
Applicants also determined metal-ion interference of the silyl-based ionophores with focused efforts on 8. Applicants designed a competition assay wherein Applicants pre-treated equimolar amounts of various metal ions, Mg^II, Ca^II, Mn^II, Fe^II, and Na^I, with 10 μM of Zn^II for 1 hour before treatment with DA-ZP1.
Finally, Applicants compared the activity of the designed compounds against known ionophores (FIGS. 2 and 11). […] [16]
In a 96-well plate, 20,000 U2OS cells were plated per well and cultured for 24 h in the incubator set to 37° C. with 5% CO2. […] The medium containing the compound was removed, and the cells were washed with 3×100 μL of fresh medium, and finally another 100 μL of 2 μM of DA-ZP1 was added to the corresponding cell culture medium containing HCS NuclearMask Blue Stain. The cells were again kept for 1 h in the incubator. The medium containing compound was removed, and the cells were washed with 1×100 μL of PBS and 2×100 μL of fresh medium, and finally, another 100 μL of fresh, dye-free medium was added. The cells were immediately imaged using a high-content fluorescence microscope (Operetta Phenix) in both the DAPI and FITC channels at 20× magnification. Images were analyzed using the Harmony software, and data were plotted using GraphPad Prism 9.

U2OS cells [2] = assay: ICP-MS analysis of intracellular Zn(II) in U2OS cells; conditions: 10 μM Zn(II) and 5 μM compound, 1 hour
Protocol: Next, Applicants used inductively coupled plasma mass spectrometry (ICP-MS) to validate the imaging assay and the ionophores activity (FIG. 1F). While the intracellular Zn^II levels where similar between DMSO and chelator 1, Zn^II concentrations inside cells were 3-fold higher when Applicants co-treated ionophores 8 and 9.
U2OS cells (˜200,000) were plated in a 6-well dish. After a day, the medium was aspirated, and Zn(II) (10 μM) and compounds (5 μM) containing media (2 mL) were added to each appropriate well. Cells were harvested by first washing each well with PBS containing EDTA (100 μM, 2×2.0 mL) and subsequently adding Milli-Q water ([…] to each well and incubating for 2-4 min. A portion of the resulting cell lysate (900 μL) was collected and transferred to an Eppendorf Safe-Lock tube, snap-frozen in N2(l), and then thawed at room temperature (RT) for a total of three freeze-thaw cycles. The insoluble lysate was pelleted (10 min at 10,000 g), and the soluble protein concentration of each sample was determined using the Pierce 660 nm Protein Assay in a 96-well plate (200 μL of reagent, 14 μL of sample, bovine serum albumin standard curve). Samples were then frozen and lyophilized overnight, and the resulting white, flaky solid was taken up in concentrated nitric acid (200 μL, ultrapure for trace metal analysis, BDH Aristar) and heated at 70° C. for 1 h. A portion of each sample (142 μL) was then diluted with water (2 mL) and a terbium internal standard (Agilent 5190-8590; stock at 10,000 parts per billion [ppb] in 10% nitric acid diluted to 100 ppb in Milli-Q water for addition to samples, 2 ppb final concentration), after which the metal content of the samples was assessed by ICP-MS. […] Therefore, 1 ppb was taken to be equal to 1 μg/L, and the molarity of a particular solution was considered equal to the measured concentration of a particular ion in ppb, divided by the molecular weight of the ion, multiplied by 10-6.

Bacillus cereus = assay: MIC, broth microdilution; conditions: Table 4, read-out: Strain MIC B. cereus
Protocol: (§1) Next, Applicants evaluated the antibacterial activities of the ionophores. First, Applicants determined their minimum inhibitory concentration (MIC) in the gram-positive bacterium that causes hospital-acquired infections, Staphylococcus epidermidis.
(§2) Staphylococcus epidermidis ATCC® 12228™, Staphylococcus caprae ATCC® 51549™, Bacillus subtilis ATCC® 6051™, and Bacillus cereus ATCC® 14579™ were grown in cation-adjusted Mueller-Hinton broth (CA-MHB) (catalog no. 90922, Sigma) as per the Clinical and Laboratory Standards Institute guidelines.2 Bacteria were routinely grown at 37° C. under aerobic conditions.
(§3) The MIC assay was performed according to the Clinical and Laboratory Standards Institute protocols.^3 The antibacterial activities of the compounds were measured using the broth microdilution method. Serial dilutions of compounds were prepared in cation-adjusted Müller Hinton Broth. Each dilution (100 μL) was dispensed to each well of a round-bottom plate to obtain final concentrations ranging from 0.07815-40 μM. Bacteria were grown at 37° C. overnight on cation-adjusted Müller Hinton Broth. The bacterial solution was prepared in 0.9% saline and adjusted to obtain an OD600=0.1 using a SpectraMax M5 (Molecular Devices). The resultant suspension was diluted 1:20 with cation-adjusted Müller Hinton Broth. The resulting mixture (10 μL) was added to each well of the plates (approximately 5×10^4 CFU/well), mixed, and incubated at 37° C. for 24 h. The MIC value was determined as the minimum concentration that inhibited the growth of bacteria.

Bacillus subtilis = assay: MIC, broth microdilution; conditions: Table 4, read-out: Strain MIC B. subtilis
Protocol: as §1, §2, §3

Staphylococcus caprae = assay: MIC, broth microdilution; conditions: Table 4, read-out: Strain MIC S. caprae
Protocol: as §1, §2, §3

[3] = tested on: S. epidermidis, S. caprae, B. subtilis, B. cereus; assay: Average MIC over the four gram-positive strains
Protocol: as §1, §3

[4] = read-out: Average MIC (molar, in brackets)

Compound: CC(C)[Si](c1cccc(CN(Cc2ccccn2)Cc2ccccn2)c1O)(C(C)C)C(C)C [Compound 9, 2-((bis(pyridin-2-ylmethyl)amino)methyl)-6-(triisopropylsilyl)phenol]
- ionophore activity (DA-ZP1 fluorescence) (U2OS cells [1]): improved ionophore activity
- intracellular Zn^II level relative to DMSO (U2OS cells [2]): 3 fold
- MIC (Bacillus cereus): 1.2 mg/L (≈ 2.6 µM)
- MIC (Bacillus subtilis): 1.2 mg/L (≈ 2.6 µM)
- MIC (Staphylococcus caprae): 0.3 mg/L (≈ 0.65 µM)
- MIC ([3]; read-out: Average MIC): 0.98 mg/L
- MIC [3, 4]: 2.1 µM
- MIC ([3]; read-out: average MIC): 1 mg/L

Compound: CC(C)(C)[Si](C)(C)c1cccc(CN(Cc2ccccn2)Cc2ccccn2)c1O [Compound 8, 2-((bis(pyridin-2-ylmethyl)amino)methyl)-6-(tert-butyldimethylsilyl)phenol]
- ionophore activity (DA-ZP1 fluorescence) (U2OS cells [1]): improved ionophore activity
- metal-ion interference with ionophore activity (average fluorescence intensity) (U2OS cells [1]; competition: 10 μM Mg^II, Ca^II, Mn^II, Fe^II or Na^I with 10 μM Zn^II and 10 μM compound): did not observe significant drops in average fluorescence intensity for most metal ions
- intracellular Zn^II level relative to DMSO (U2OS cells [2]): 3 fold
- MIC (Bacillus cereus): 4.2 mg/L (≈ 10 µM)
- MIC (Bacillus subtilis): 4.2 mg/L (≈ 10 µM)
- MIC (Staphylococcus caprae): 1.1 mg/L (≈ 2.62 µM)
- MIC ([3]; read-out: Average MIC): 3.4 mg/L
- MIC [3, 4]: 8.1 µM

— patent publication US20250206704A1, “ENGINEERED IONOPHORES FOR TRANSPORT OF METAL IONS” (The Brigham and Women's Hospital, Inc., priority 2022, published 2025)
